Results published in ChEMBL document CHEMBL1140465, “The design and preliminary structure-activity relationship studies of benzotriazines as potent inhibitors of Abl and Abl-T315I enzymes” (Bioorg Med Chem Lett, 2007).
Values belong to the compound of their own block, whether it stands above or below them. The source made the active and inactive calls. The calls are words filed in the database; no cut-off is given here.

How the values were obtained:
[1] = target: Tyrosine-protein kinase ABL1 (Homo sapiens, UniProt P00519, T315I); experiment: Inhibition of Abl-T315I mutant
[2] = target: Tyrosine-protein kinase ABL1 (Homo sapiens, UniProt P00519)
Bcr-Abl [3] = experiment: Apoptosis inducing activity in Bcr-Abl cells assessed as caspase 3 activation after 4 hrs; assay type: functional, cell-based; details: Homo sapiens
BaF3 [4] = experiment: Blockade of full length human Bcr-Abl expressed in mouse Ba/F3 cells assessed as inhibition of STAT5 phosphorylation; assay type: cell-based
BaF3 [5] = experiment: Apoptosis inducing activity in Ba/F3 cells assessed as induction of DNA fragmentation at 2 uM after 24 hrs; assay type: functional, cell-based; details: Mus musculus
Homo sapiens [6] = organism: Homo sapiens; experiment: Apoptosis inducing effect in Bcr-Abl-T315I cells assessed as caspase 3 activation after 4 hrs; assay type: functional, cell-based
Homo sapiens [7] = organism: Homo sapiens; experiment: Apoptosis inducing activity in Bcr-Abl-T315I cells assessed as induction of DNA fragmentation at 2 uM after 24 hrs; assay type: functional, cell-based
Bcr-Abl [8] = experiment: Apoptosis inducing activity in Bcr-Abl cells assessed as induction of DNA fragmentation at 2 uM after 24 hrs; assay type: functional, cell-based; details: Homo sapiens
BaF3 [9] = experiment: Blockade of Bcr-Abl-T315I mutant expressed in mouse Ba/F3 cells assessed as inhibition of […] phosphorylation; assay type: cell-based; details: Homo sapiens
BaF3 [10] = experiment: Apoptosis inducing activity in Ba/F3 cells assessed as caspase 3 activation after 4 hrs; assay type: functional, cell-based; details: Mus musculus
[11] = target: Proto-oncogene tyrosine-protein kinase Src (Homo sapiens, UniProt P12931); experiment: Inhibition of Src
Chain of Proto-oncogene tyrosine-protein kinase Src (P12931 2-536 limits assumed): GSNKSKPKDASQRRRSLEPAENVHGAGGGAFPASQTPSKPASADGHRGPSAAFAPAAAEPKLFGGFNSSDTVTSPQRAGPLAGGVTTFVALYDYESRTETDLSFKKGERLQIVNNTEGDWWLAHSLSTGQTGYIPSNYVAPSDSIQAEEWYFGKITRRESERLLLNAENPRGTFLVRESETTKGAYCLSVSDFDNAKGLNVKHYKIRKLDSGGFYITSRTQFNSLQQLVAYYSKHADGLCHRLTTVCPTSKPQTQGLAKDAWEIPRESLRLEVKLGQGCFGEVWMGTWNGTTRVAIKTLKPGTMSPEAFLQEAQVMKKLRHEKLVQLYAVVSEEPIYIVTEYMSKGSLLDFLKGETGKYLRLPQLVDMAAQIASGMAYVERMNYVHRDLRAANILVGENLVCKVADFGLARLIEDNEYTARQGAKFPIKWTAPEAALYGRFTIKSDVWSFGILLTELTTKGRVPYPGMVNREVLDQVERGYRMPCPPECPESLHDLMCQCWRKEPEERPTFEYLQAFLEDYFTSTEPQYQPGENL

- Ki [1]: 4240 nM
- Ki [2]: 11 nM
Structure (SMILES): Cc1cccc(C)c1-c1cc(C)c2nc(Nc3ccc(OCCN4CCCC4)cc3)nnc2c1

Structure (SMILES): Cc1cc(-c2cc(O)ccc2Cl)cc2nnc(Nc3ccc(S(=O)(=O)NCCN4CCCC4)cc3)nc12
- Activity (Bcr-Abl [3]): Active
- Activity (BaF3 [4]): Active
- Activity (BaF3 [5]): inactive
- Activity (Homo sapiens [6]): Active
- Activity (Homo sapiens [7]): Active
- Activity (Bcr-Abl [8]): Active
- Activity (BaF3 [9]): Active
- Activity (BaF3 [10]): inactive

- Ki [11]: 1.3 nM
Structure (SMILES): Cc1cc(-c2cc(O)ccc2Cl)cc2nnc(Nc3ccc(OCCN4CCCC4)cc3)nc12
